{"source": "patent US20160296658A1", "about": "“NOVEL ACTIVE INGREDIENT IN CICATRIZATION AND USE THEREOF” (LABORATOIRES URGO, priority 2007, published 2016)", "test_system": "normal human dermal fibroblasts (NHDF) R9PF2", "assay": "NHDF proliferation by incorporation of tritiated thymidine", "assay_type": "cell-based", "details": "dilution in culture medium at 0.011 mg/mL; 48 hours", "experimental": "Type: pool of normal human dermal fibroblasts (NHDF) R9PF2\nDMEM (Dulbecco's Modified Eagle Medium, Invitrogen 21969035)\nDressings having the size of the wells, prepared as described previously using the elastomeric masses of examples 1 to 5, and also dilutions of the Sepinov EMT 10 copolymer to 0.011 mg/mL and of potassium sucrose octasulfate to 0.00064 mg/mL, were tested.\nEffects on Proliferation:\nThe fibroblasts were seeded into 12-well plates at low density (60% confluence), and then the cells were treated with the dilutions or pieces of dressings were applied to these plates and kept in place by means of a plug (called “test”). A control without dressing, without dilution but with plug was carried out (called “control”).\nThe cells were then incubated for 24 hours, 48 hours and 72 hours. For each incubation time, tritiated thymidine ([methyl-3H]-thymidine, Amersham TRK 686 2.5 μCi/mL final concentration) was added for the final 24 hours of incubation and then the DNA of the cells of the cell layers was extracted and purified and the radioactivity incorporated into the DNA was counted using a scintillation counter.\nThe results obtained are expressed as counts per minute (cpm), then as percentage relative to the control according to the following formula:\n%control=(Cpmtest/cmpcontrol)×100 […]"}
{"smiles": "O=S(=O)([O-])OC[C@H]1O[C@@](COS(=O)(=O)[O-])(O[C@H]2O[C@H](COS(=O)(=O)[O-])[C@@H](OS(=O)(=O)[O-])[C@H](OS(=O)(=O)[O-])[C@H]2OS(=O)(=O)[O-])[C@@H](OS(=O)(=O)[O-])[C@@H]1OS(=O)(=O)[O-].[K+].[K+].[K+].[K+].[K+].[K+].[K+].[K+]", "note": "[Potassium sucrose octasulfate, potassium sucrose octasulfate]", "values": [{"measurement": "NHDF proliferation, % control", "result": 106, "unit": "% control"}]}
